This is an account of results in ChEMBL document CHEMBL3627598, “Synthesis of novel compounds containing morpholine and 5(4H)-oxazolone rings as potent tyrosinase inhibitors” (Bioorg Med Chem, 2015).

SMILES strings stand for the structures.

In the first data set the target is T1, Tyrosinase (Mus musculus) (UniProt P11344).
T1 sequence (whole entry): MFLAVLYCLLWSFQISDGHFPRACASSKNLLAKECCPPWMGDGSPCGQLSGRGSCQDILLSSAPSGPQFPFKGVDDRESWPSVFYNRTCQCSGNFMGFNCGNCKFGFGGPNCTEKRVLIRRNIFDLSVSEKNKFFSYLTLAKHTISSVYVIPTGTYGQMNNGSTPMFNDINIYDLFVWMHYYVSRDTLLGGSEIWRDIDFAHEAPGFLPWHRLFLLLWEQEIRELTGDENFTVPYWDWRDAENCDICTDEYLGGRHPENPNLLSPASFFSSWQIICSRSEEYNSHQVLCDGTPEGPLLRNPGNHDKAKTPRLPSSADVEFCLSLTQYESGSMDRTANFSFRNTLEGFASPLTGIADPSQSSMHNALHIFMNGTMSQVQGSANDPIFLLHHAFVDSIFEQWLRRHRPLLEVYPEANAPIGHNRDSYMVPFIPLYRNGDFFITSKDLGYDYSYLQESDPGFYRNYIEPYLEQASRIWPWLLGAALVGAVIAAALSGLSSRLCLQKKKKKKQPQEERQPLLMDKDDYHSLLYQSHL
Description: Inhibition of tyrosinase in mouse B16F10 cells assessed as reduction of melanin production at 20 ug/ml incubated for 72 hrs. Particulars: B16-F10. Format: cell-based.
Take `O=C1OC(c2ccc(/N=N/c3ccc(N4CCOCC4)cc3)cc2)=N/C1=C/c1ccccc1`: the inhibition (usually the drop in the measured response relative to a control, in per cent) was found to be 40.1%.

Regarding `O=C1OC(c2ccc(/N=N/c3ccc(N4CCOCC4)cc3)cc2)=N/C1=C/c1ccc(F)cc1`, the inhibition stood at 38.8%.

For `O=C1OC(c2ccc(/N=N/c3ccc(N4CCOCC4)cc3)cc2)=N/C1=C/c1ccc(Cl)cc1`, the inhibition worked out at 34.4%.

For the compound `O=C1OC(c2ccc(/N=N/c3ccc(N4CCOCC4)cc3)cc2)=N/C1=C/c1ccccc1[N+](=O)[O-]`, the inhibition worked out at 30.7%.

Regarding `O=C1OC(c2ccc(/N=N/c3ccc(N4CCOCC4)cc3)cc2)=N/C1=C/c1ccc(F)cc1Cl`, the inhibition was determined as 32.4%.

As for `O=C1OC(c2ccc(/N=N/c3ccc(N4CCOCC4)cc3)cc2)=N/C1=C/c1cccs1`, the inhibition was determined as 31.2%.

System in the next data set: not listed separately
Description: Cytotoxicity against mouse B16F10 cells assessed as cell viability at 20 ug/ml incubated for 72 hrs by MTT assay. Format: cell-based, B16-F10. The conditions noted are these: read-out: Activity. In general terms: Tetrazolium assays rely on reduction of a dye to a coloured formazan, in cell work by metabolically active cells.
On to `O=C1OC(c2ccc(/N=N/c3ccc(N4CCOCC4)cc3)cc2)=N/C1=C/c1ccccc1`, for which the viability at 72 h, 20 ug/ml turned out to be 62.9%.

For `O=C1OC(c2ccc(/N=N/c3ccc(N4CCOCC4)cc3)cc2)=N/C1=C/c1ccc(F)cc1`, the viability at 72 h, 20 ug/ml is 57.2%.

As to `O=C1OC(c2ccc(/N=N/c3ccc(N4CCOCC4)cc3)cc2)=N/C1=C/c1ccc(Cl)cc1`, the viability at 72 h, 20 ug/ml was 61.9%.

Consider `O=C1OC(c2ccc(/N=N/c3ccc(N4CCOCC4)cc3)cc2)=N/C1=C/c1ccccc1[N+](=O)[O-]`, for which the viability at 72 h, 20 ug/ml was 58.1%.

`O=C1OC(c2ccc(/N=N/c3ccc(N4CCOCC4)cc3)cc2)=N/C1=C/c1ccc(F)cc1Cl`: the viability at 72 h, 20 ug/ml came to 60.7%.

As for `O=C1OC(c2ccc(/N=N/c3ccc(N4CCOCC4)cc3)cc2)=N/C1=C/c1cccs1`, the viability at 72 h, 20 ug/ml was 56.7%.

The next data set has as its target T2, Tyrosinase (Agaricus bisporus, UniProt O42713).
T2 sequence (O42713 whole entry): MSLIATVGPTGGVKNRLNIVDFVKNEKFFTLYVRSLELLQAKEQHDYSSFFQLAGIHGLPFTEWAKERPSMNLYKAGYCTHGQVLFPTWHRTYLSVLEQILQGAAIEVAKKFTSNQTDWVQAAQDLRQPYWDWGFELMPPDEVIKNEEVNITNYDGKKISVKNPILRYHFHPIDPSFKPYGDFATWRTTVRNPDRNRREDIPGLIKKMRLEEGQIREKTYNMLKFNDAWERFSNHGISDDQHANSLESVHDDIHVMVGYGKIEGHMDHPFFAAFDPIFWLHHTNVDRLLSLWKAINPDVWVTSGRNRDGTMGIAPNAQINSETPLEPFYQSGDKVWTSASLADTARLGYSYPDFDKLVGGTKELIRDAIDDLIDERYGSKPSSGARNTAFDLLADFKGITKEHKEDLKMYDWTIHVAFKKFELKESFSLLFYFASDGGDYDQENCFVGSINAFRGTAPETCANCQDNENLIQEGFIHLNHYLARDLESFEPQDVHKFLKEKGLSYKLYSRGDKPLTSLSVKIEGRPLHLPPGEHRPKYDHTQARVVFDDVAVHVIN
Description: Inhibition of mushroom tyrosinase using L-DOPA as substrate assessed as formation of L-DOPA chrome preincubated for 10 mins followed by addition of substrate measured over 10 mins by […].
Conditions: not given
With `O=C1OC(c2ccc(/N=N/c3ccc(N4CCOCC4)cc3)cc2)=N/C1=C/c1ccccc1`, the IC50 (usually the concentration at which inhibition is half-maximal) came to 17.2 µM.

Turning to `O=C1OC(c2ccc(/N=N/c3ccc(N4CCOCC4)cc3)cc2)=N/C1=C/c1ccc(F)cc1`, the IC50 was found to be 15.8 µM.

For `O=C1OC(c2ccc(/N=N/c3ccc(N4CCOCC4)cc3)cc2)=N/C1=C/c1ccc(Cl)cc1`, the IC50 stood at 18.9 µM.

With `O=C1OC(c2ccc(/N=N/c3ccc(N4CCOCC4)cc3)cc2)=N/C1=C/c1ccccc1[N+](=O)[O-]`, the IC50 was 20.3 µM.

In the case of `O=C1OC(c2ccc(/N=N/c3ccc(N4CCOCC4)cc3)cc2)=N/C1=C/c1ccc(F)cc1Cl`, the IC50 was determined as 16 µM.

For the compound `O=C1OC(c2ccc(/N=N/c3ccc(N4CCOCC4)cc3)cc2)=N/C1=C/c1cccs1`, the IC50 was 13.7 µM.
